From ChEMBL document CHEMBL1158880, “New cembranoid diterpenes and a geranylgeraniol derivative from the common Caribbean sea whip Eunicea succinea” (1997)

Tests used:
Type in all cases: functional
[1] = system: SNB-75; test: Cytotoxicity against human SNB75 cells
[2] = system: M14; test: Cytotoxicity against human M14 cells
[3] = Cytotoxicity against human Hs 578T cells

For `C=C(C)[C@H]1CC/C(C)=C/CC[C@@]2(C)O[C@@H]2CC/C(COC(C)=O)=C\[C@@H]1O` [ASPERDIOL ACETATE], the GI50 [1] was 0.625 µM, the GI50 [2] was 8.28 µM and the GI50 [3] was 8.28 µM.
